Measurements from US10781215B2, “Heterobicyclic compounds useful as modulators of IL-12, IL-23 and/or IFNα responses” (BRISTOL-MYERS SQUIBB COMPANY, priority 2016, dated 2020).

Legend:
[1] = system: IFNα stimulated Kit225 T cells (STAT-dependent luciferase reporter); test: Kit225 T cell assay, IFNα stimulated STAT-dependent luciferase reporter; type: cell-based; conditions: 200 U/mL human recombinant IFNα, 5-6 hours
Description: (§1) Kit225 T cells with a stably-integrated STAT-dependent luciferase reporter were plated in RPMI (Gibco) containing 10% heat-inactivated FBS (Gibco) and 100 U/mL PenStrep (Gibco). The cells were then stimulated with either 20 ng/mL human recombinant IL-23 or 200 U/mL human recombinant IFNα (PBL InterferonSource) for 5-6 hours. Luciferase expression was measured using the STEADY-GLO® Luciferase Assay System (Promega) according to the manufacturer's instructions. Inhibition data were calculated by comparison to no inhibitor control wells for 0% inhibition and non-stimulated control wells for 100% inhibition. Dose response curves were generated to determine the concentration required to inhibit 50% of cellular response (IC50) as derived by non-linear regression analysis.

[2] = molecular target: T1, human Tyk2 (amino acids 575-869, His-tagged) (Homo sapiens, UniProt P29597); test: Probe displacement assay (SPA format); type: binding; conditions: radiolabeled probe 40 nM, Tyk2 2.5 nM
T1 construct: made in house
T1 sequence (P29597 with tags, fused parts or gaps): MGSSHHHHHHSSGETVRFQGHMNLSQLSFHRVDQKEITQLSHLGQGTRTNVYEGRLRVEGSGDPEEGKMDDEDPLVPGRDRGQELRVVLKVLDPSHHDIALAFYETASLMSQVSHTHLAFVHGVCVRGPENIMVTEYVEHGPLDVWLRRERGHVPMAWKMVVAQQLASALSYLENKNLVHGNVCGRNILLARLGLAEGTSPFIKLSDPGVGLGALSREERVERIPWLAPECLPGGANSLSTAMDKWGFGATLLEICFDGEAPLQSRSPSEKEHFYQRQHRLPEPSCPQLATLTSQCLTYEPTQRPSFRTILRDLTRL
Description: Probe Displacement Assay (SPA Format) The probe displacement assay is conducted as follows: In a […], test compounds along with recombinantly expressed His-tagged protein corresponding to amino acids 575-869 of human Tyk2 (sequence shown below) at 2.5 nM, 40 nM ((R)—N-(1-(3-(8-methyl-5-(methylamino)-8H-imidazo [4,5-d]thiazolo [5,4-b]pyridin-2-yl)phenyl)ethyl)-2-([^3H]methylsulfonyl)benzamide) (preparation described below) and 80 μg/mL Copper His-Tag scintillation proximity assay beads (Perkin Elmer, Catalog # RPNQ0095) in 50 mM HEPES, pH 7.5, containing 100 μg/mL bovine serum albumin and 5% DMSO were incubated for 30 minutes at room temperature. The amount of radiolabeled probe (preparation described below) bound to Tyk2 was then quantified by scintillation counting, and the inhibition by the test compound calculated by comparison to wells either with no inhibitor (0% inhibition) or without Tyk2 (100% inhibition). The EC50 value is defined as the concentration of test compound required to inhibit radiolabeled probe binding by 50%. Probe Displacement Assay (HTRF Format)

[3] = system: IL-23 stimulated Kit225 T cells (STAT-dependent luciferase reporter); test: Kit225 T cell assay, IL-23 stimulated STAT-dependent luciferase reporter; type: cell-based; conditions: 20 ng/mL human recombinant IL-23, 5-6 hours
Description: as §1

IC50 [1] | EC50 [2] | IC50 [3] | Compound
1160 nM | 167 nM | 3310 nM | Cc1nc2c(Nc3ccccc3C(N)=O)cc(Nc3ccc(F)cn3)nc2[nH]1 [Example 32, 2-({5-[(5-fluoropyridin-2-yl)amino]-2-methyl-3H-imidazo[4,5-b]pyridin-7-yl}amino)benzamide]
3620 nM | 240 nM | 2400 nM | COc1ccnc(Nc2cc(Nc3ccccc3S(C)(=O)=O)c3nc(C)[nH]c3n2)c1 [Example 18, 7-N-(2-methanesulfonylphenyl)-5-N-(4-methoxypyridin-2-yl)-2-methyl-3H-imidazo[4,5-b]pyridine-5,7-diamine]
1220 nM | – | 1960 nM | Cc1cc(Nc2cc(Nc3ccccc3C(N)=O)c3nc(C)[nH]c3n2)nc(C)n1 [Example 33, 2-({5-[(2,6-dimethylpyrimidin-4-yl)amino]-2-methyl-3H-imidazo[4,5-b]pyridin-7-yl}amino)benzamide]
564 nM | 17 nM | 854 nM | Cc1nc2c(Nc3ccccc3S(C)(=O)=O)cc(Nc3ccc(N4CCC(C)(O)CC4)cn3)nc2[nH]1 [Example 9, 1-[6-({7-[(2-methanesulfonylphenyl)amino]-2-methyl-3H-imidazo[4,5-b]pyridin-5-yl}amino)pyridin-3-yl]-4-methylpiperidin-4-ol]
196 nM | 12 nM | 347 nM | Cc1cc(Nc2cc(Nc3ccccc3S(C)(=O)=O)c3nc(C)[nH]c3n2)nc(C)n1 [Example 4, 5-N-(2,6-dimethylpyrimidin-4-yl)-7-N-(2-methanesulfonylphenyl)-2-methyl-3H-imidazo[4,5-b]pyridine-5,7-diamine]
201 nM | 27 nM | 261 nM | Cc1ccc(Nc2cc(Nc3ccccc3S(C)(=O)=O)c3nc(C)[nH]c3n2)nc1 [Example 21, 7-N-(2-methanesulfonylphenyl)-2-methyl-5-N-(5-methylpyridin-2-yl)-3H-imidazo[4,5-b]pyridine-5,7-diamine]
463 nM | 10 nM | 875 nM | Cc1ccc(Nc2cc(Nc3ccccc3S(C)(=O)=O)c3nc(C)[nH]c3n2)nn1 [Example 11, 7-N-(2-methanesulfonylphenyl)-2-methyl-5-N-(6-methylpyridazin-3-yl)-3H-imidazo[4,5-b]pyridine-5,7-diamine]
207 nM | 31 nM | 183 nM | Cc1cnc(Nc2cc(Nc3ccccc3S(C)(=O)=O)c3nc(C)[nH]c3n2)cn1 [Example 15, 7-N-(2-methanesulfonylphenyl)-2-methyl-5-N-(5-methylpyrazin-2-yl)-3H-imidazo[4,5-b]pyridine-5,7-diamine]
4260 nM | 270 nM | 1410 nM | Cc1nc2c(Nc3ccccc3S(C)(=O)=O)nc(Nc3ccc(F)cc3)nc2[nH]1 [Example 1, N2-(4-fluorophenyl)-8-methyl-N6-(2-(methylsulfonyl)phenyl)-9H-purine-2,6-diamine]
190 nM | 13 nM | 143 nM | Cc1nc2c(Nc3ccccc3S(C)(=O)=O)cc(Nc3ccc(C(F)(F)F)cn3)nc2[nH]1 [Example 10, 7-N-(2-methanesulfonylphenyl)-2-methyl-5-N-[5-(trifluoromethyl)pyridin-2-yl]-3H-imidazo[4,5-b]pyridine-5,7-diamine]
264 nM | – | 370 nM | Cc1nc2c(Nc3ccccc3S(C)(=O)=O)cc(Nc3ccn(C)n3)nc2[nH]1 [Example 22, 7-N-(2-methanesulfonylphenyl)-2-methyl-5-N-(1-methyl-1H-pyrazol-3-yl)-3H-imidazo[4,5-b]pyridine-5,7-diamine]
5120 nM | – | 4380 nM | Cc1nc2c(Nc3ccccc3C(N)=O)cc(Nc3ccc(N4CCOCC4)cn3)nc2[nH]1 [Example 34, 2-[(2-methyl-5-{[5-(morpholin-4-yl)pyridin-2-yl]amino}-3H-imidazo[4,5-b]pyridin-7-yl)amino]benzamide]
